According to publication PMC9975495, “Unveiling the therapeutic potential of cabozantinib-loaded poly D,L-lactic-co-glycolic acid and polysarcosine nanoparticles in inducing apoptosis and cytotoxicity in human HepG2 hepatocellular carcinoma cell lines and in vivo anti-tumor activity in SCID female mice” (Frontiers in Oncology, 2023):

Assays:
erythrocytes = experiment: Erythrocyte membrane integrity by lactate dehydrogenase release; assay type: cell-based, human; details: erythrocyte suspension, 10, 50 and 100 µg/mL, 8 hours
Procedure: Erythrocytes produce lactate dehydrogenase (LDH), which may be measured photometrically using the LDH test kit/Lactate Dehydrogenase Assay Kit (Colorimetric) (ab102526) ([50]). For the LDH investigation, blood was obtained from the neighbouring blood bank. The erythrocyte suspension was made according to the methodology described in our earlier research. In 1mL of erythrocyte solution was treated with specific amount of Cabozantinib (CNB), PLGA-PSar-encapsulated Cabozantinib nanoparticles (CNB-PLGA-PSar-NPs), and placebo (PLGA-PSar-NPs) ([51]). Positive control sample was created by diluting erythrocyte suspension with 1% Triton-X-100, whereas negative control sample was created by diluting erythrocyte suspension with normal saline solution. […] LDH was detected at 500nm after a ready-to-use LDH solution was added to the supernatant. The total of LDH was calculated using the following formula. […]
Where, A sample stands for Cabozantinib, PLGA-PSar-encapsulated Cabozantinib nanoparticles (CNB-PLGA-PSar-NPs) incubated erythrocytes absorbance, A negative control indicates, erythrocytes absorbance of sample, which was pre-treated with normal saline solution. The A standard indicates the absorbance of erythrocytes sustention, which were pre-treated with 150/UL Lactate dehydrogenase (LDH) enzyme. […]

[1] = system: HePG2 cells Xenograft model; experiment: In vivo anti-tumour efficacy study, HePG2 xenograft; set-up: species or system SCID female mice; details: 20 mg/kg i.v. once weekly, 21 days
Procedure: The SCID female mice of 8-10 weeks old were used in the in vivo effectiveness study ([53]). SCID stands for severe combined immunodeficiency disorder. Mice were housed in individually ventilated cages with pelleted food, a 12-hour/12-hour dark-light cycle, and unrestricted access to water (supplied ad libitum) in a climate-controlled setting with a temperature range of 25°C ± 3°C. The National Institutes of Health's guidelines for the care and use of animals were followed when conducting all animal experiments, which included those at Animal House of […], India. These facilities also complied with CPCSEA (Committee for the Purpose of Control and Supervision of Experiments on Animals) regulations. Mice were subcutaneously injected with cultured HePG2 cells (5x10^6 cells) in 200μL of RPMI 1640 with 33% Corning Matrigel Basement Membrane Matrix (Sigma-Aldrich, India). […] A digital electronic calliper was used to measure the tumor's size twice a week. To assess toxicity, body weight was monitored twice weekly. Tumour volume was calculated as […]. The SCID female mice were given thiopental anaesthesia prior to being killed by cervical dislocation. Before being implanted in paraffin wax, liver tissues and tumour bulbs from the descending liver were collected and preserved overnight in 10% formalin (CH2O) with a pH 7.4 phosphate buffer solution.

[2] = Tissue distribution studies; assay type: in vivo, SCID mice; details: 20 mg/kg i.v. bolus, killed eight hours later
Source text: Tissue distribution studies in mice with SCID are required in anti-liver cancer activity to determine the distribution and concentration of a drug within the body after administration ([54]). This information is important for understanding how the drug is metabolized and cleared by the body, as well as for determining appropriate dosing regimens. Additionally, tissue distribution studies can help to identify any potential toxicities or side effects associated with the drug in specific organs or tissues. In the case of anti-liver cancer activity, knowing the distribution of the drug in the liver would be particularly important to ensure the drug is reaching its target site and effectively inhibiting the growth of cancer cells. The tissue distribution of a bolus dosage of 20 mg/kg i.v. Cabozantinib (CNB), CNB-PLGA-PSar-NPs was documented. The greatest concentration of CNB was found in liver parenchymal hepatocyte tissue. […] The increased affinity of CNB in the liver and pancreas enables the medication molecule to effectively treat liver cancer.
The tissue distribution was studied by separating 18 SCID mice into three groups (each group had six mice). The drug and its Nano formulations were administered intravenously (i.v.) at a bolus dose of 20 mg/kg. Groups of mice were given a dosage and then killed eight hours later. […] The samples were analysed using RP-UHPLC (Dionex Ultimate, 3000). […]

[3] = Pharmacokinetic study, plasma by RP-HPLC; assay type: in vivo, Male Albino Wister rats; details: rats, 20 mg/kg intravenous
Procedure: 06 Male Albino Wister rats (200 to 250 g) are separated into two groups (n=3) for the purpose of conducting pharmacokinetic studies ([55]). For up to 72 hours, a comparative plasma concentration-time profile of Cabozantinib (CNB), CNB-PLGA-PSar-NPs was analysed. […] Using the tail vein of rats, 500µL of blood samples were collected at 0, 0.5, 1, 2, 4, 8, 16, 24, 48, and 72 hours from three animals in each group. Blood samples were stored in a microcentrifuge tube and centrifuged at 7,500 rpm for 30 minutes at 25°C to separate supernatant plasma. The collected samples were analysed using the RP-HPLC system and stored at -80°C (1290 Infinity II LC System, Agilent, USA). Using kinetica 5.0 pharmacokinetics software, the obtained RP-HPLC variables were interpreted in terms of their pharmacokinetics (Thermo Fisher Scientific, Yokohama)

Hep Par 1 = experiment: Immunohistochemistry of xenograft tumour sections; assay type: in vivo, SCID female mice; details: five 400 µm × 400 µm zones
Procedure: Paraffin 10µm thick sections of xenograft HePG2 cancer cell tissues embedded in liver parenchyma blocks. The blocks were […] in a 10 mM citrate buffer solution and autoclaved for 20 minutes to extract antigens. After heating the section slide blocks, they were allowed to cool for 1.5 hours at room temperature. The sectioned slides were then incubated overnight at 4°C with a primary antibody against Hepatocyte specific antigen (Hep Par 1) (91091816- SK-HEP-1, Sigma-Aldrich, Bengaluru, India). Further, section slides were incubated with enzyme-linked immunosorbent assay (ELISA) horseradish peroxidase (HRP) conjugated Goat anti-Rabbit IgG (H+L) secondary antibody (Thermo Fisher Scientific, Vadodara, Gujarat) for 1hr followed by treatment with 120µL […] (Dako). For analysing the results of Immunohistochemistry, five square zones […] were measured and averaged for the number of stained cells in each sectioned slide. Using GraphPad Prism 9 (San Diego, California) and student t-test statistical analyses were performed.

[4] = male, Albino Wister, rat, plasma

C0 [3, 4]	Cmax [3, 4]	MRT [3, 4]	Vd [3, 4]	clearance [3, 4]	t1/2 [3]	Compound	LDH release / erythrocyte membrane integrity (erythrocytes)	reduction in the size of the tumour compared to the vehicle control [1]	tissue distribution [2]	Hep Par 1 labelling index (Hep Par 1)
						Triton X 100	exceptionally significant LDH release			
215 ± 16.3 ng/mL	241 ± 34.2 ng/mL	7.45 ± 0.24 h	1.522 ± 0.00154 L	2.08 mL/min	5.21 ± 0.18 h	COc1cc2nccc(Oc3ccc(NC(=O)C4(C(=O)Nc5ccc(F)cc5)CC4)cc3)c2cc1OC [CNB, Cabozantinib]	would not alter the integrity of erythrocyte membranes	60.3%	more widely distributed in the parenchymal hepatocyte tissue	9.22 ± 1.67
